Experimental data taken from the COVID Moonshot data (paper PMC7615835).
“And” between values parts separate entries of the source, which are not always exact repeats. Equal entries are not always repeated.

target: SARS-CoV-2 Main Protease (SARS-CoV-2) (UniProt P0DTD1)

Point of comparison: `Cc1c(N)cncc1NC(=O)Cc1cccc(Cl)c1`, IC50 4.22 µM. Against it:
- Cc1cc2c(NC(=O)C3CCOc4ccc(Cl)cc43)cncc2s1 (stereo unspecified) — 19-fold lower, 0.228 µM
- CS(=O)(=O)N1Cc2ccc(Cl)cc2C(C(=O)Nc2cncc3c2CCCC3)C1 (stereo unspecified) — 6.6-fold lower, 0.642 µM
- O=C(Nc1cncc2cc(F)ccc12)C1CCS(=O)(=O)c2ccc(Cl)cc21 (stereo unspecified) — 5.5-fold lower, 0.77 µM
- CC1(C(=O)Nc2cncc3ccc(S(C)(=O)=O)cc23)CNC(=O)c2ccc(Cl)cc21 (stereo unspecified) — 1.6-fold higher, 6.62 µM
- Cc1cccc2cncc(NC(=O)Cc3cccc(Cl)c3)c12 — 13-fold lower, 0.331 µM
- CC(C(=O)NS(=O)(=O)c1cnn(-c2cccc(C(F)(F)F)c2)c1)n1cnc(C#N)n1 (stereo unspecified) — higher, > 99.5 µM
- COCc1ccc(N(C(=O)c2cnc[nH]2)C(C(=O)NCCc2cccc(F)c2)c2cccnc2)cc1 (stereo unspecified) — 15-fold higher, 62.9 µM
- N#Cc1cnn(C(=O)c2cccs2)c1C1CC1 — within 1.5-fold, 3.24 µM
- O=C(Cc1cc(Cl)cc(Nc2c(F)cc(F)cc2Cl)c1)Nc1cncc2ccccc12 — 2-fold lower, 2.06 µM
- COc1ccc2c(N)nn(C(=O)Cc3cccc(Cl)c3)c2c1 — higher, > 99.5 µM
- O=C(Nc1ccc(F)cc1)[C@@H](c1ccccc1)N1Cc2ccccc2C1=O (stereo in doubt) — higher, > 99.5 µM
- O=C(Cc1cc(Cl)cc(Nc2ccc(F)cc2Br)c1)Nc1cncc2ccccc12 — 2.1-fold lower, 2.04 µM
- O=C(Nc1cncc2ccccc12)C1CCN(Cc2ccccc2)c2ccc(Cl)cc21 (stereo unspecified) — 4-fold lower, 1.06 µM
- COc1c(C(=O)N(c2ccc(C(C)(C)C)cc2)C(C(=O)NCCc2cccc(F)c2)c2cccnc2)[nH]c(=O)[nH]c1=O (stereo unspecified) — higher, > 99.5 µM
- CC[C@]1(c2ccc(Nc3cc(Cl)cc(CC(=O)Nc4cncc5ccccc45)c3)cc2)CCC(=O)NC1=O (stereo in doubt) — 2.2-fold lower, 1.91 µM
- Cn1cnnc1-c1cccc(NS(=O)(=O)c2c(Cl)nc3sccn23)c1 — higher, > 99.5 µM
- Cc1ccncc1NC(=O)Cc1cc(Cl)cc(NC2(C)CCC(F)(F)CC2)c1 — 3.5-fold higher, 14.7 µM
- CC(C)NC(=O)CN1CC(C(=O)Nc2cncc3cc(S(C)(=O)=O)ccc23)c2cc(Cl)ccc2C1=O (stereo unspecified) — 13-fold lower, 0.332 µM
- NCc1cn(CC(=O)N(Cc2ccsc2)c2ccc(-c3ccccc3)cc2)nn1 — higher, > 99.5 µM
- COCc1ccccc1CNS(=O)(=O)c1c(C)sc(C)c1C — higher, > 99.5 µM
- O=C1CC(Oc2cc(Cl)cc(CC(=O)Nn3cnc4ccccc43)c2)N1 (stereo unspecified) — 19-fold higher, 82.1 µM
- CC(NC(=O)c1c(Cl)nc2ccccn12)c1nnc2ccccn12 (stereo unspecified) — higher, > 99.5 µM
- CC(C)(C)c1ccc(N(C(=O)c2ccc(=O)[nH]n2)C(C(=O)NCCc2cccc(F)c2)c2cccnc2)cc1 (stereo unspecified) — higher, > 99.5 µM
- CNC(=O)N1CCc2ccc(Cl)cc2C1C(=O)Nc1cncc2ccccc12 (stereo unspecified) — 1.7-fold lower, 2.47 µM
- O=C(c1cc(=O)[nH]c2ccccc12)N1CCN(c2cccc(C(F)(F)F)c2)CC1 — within 1.5-fold, 3.8 µM
- O=C(NCCOc1ccccc1)c1cc(=O)[nH]c2ccccc12 — higher, > 99.5 µM
- Cc1nc(CN2C(=O)C(=O)c3cc(Br)ccc32)cs1 — higher, > 99.5 µM
- CN(C(=O)c1ccco1)C(C(=O)NCCc1cccc(F)c1)c1cccnc1 (stereo unspecified) — higher, > 99.5 µM
- O=C(Cc1cc(Cl)cc(-n2c(C3CCNCC3)nc3ccccc32)c1)Nc1cncc2ccccc12 — 1.9-fold lower, 2.24 µM
- CC(C)(C)c1ccc(N(C(=O)c2cnon2)C(C(=O)NCCc2cccc(F)c2)c2cccnc2)cc1 (stereo unspecified) — 2-fold higher, 8.41 µM
- O=C(Nc1cnccc1Cl)c1cc(Cl)ccc1O — 5.7-fold higher, 24.2 µM
- O=C(Cc1cc(Cl)cc(N(C2CCCCC2)C2CCCCC2)c1)Nc1cncc2ccccc12 — 1.8-fold lower, 2.3 µM
- Cc1cc(=O)oc2cc(Nc3cc(Cl)cc(CC(=O)Nc4cncc5ccccc45)c3)ccc12 — 2-fold lower, 2.12 µM
- O=C(Cc1cc(Cl)cc(NCCc2ccc(Cl)cc2Cl)c1)Nc1cncc2ccccc12 — within 1.5-fold, 3.91 µM
- O=C(NCCc1cccc(F)c1)C(c1cccnc1)N(C(=O)c1cnc[nH]1)c1cnc(C2CCC2)nc1 (stereo unspecified) — higher, > 99 µM
- O=C(Cc1cc(Cl)cc(N2CCN(Cc3cccc(F)c3)CC2)c1)Nc1cncc2ccccc12 — within 1.5-fold, 3.28 µM
- CNc1ccc(N(C(=O)Cn2nnc3ccccc32)c2cccc(Cl)c2)cc1 — within 1.5-fold, 5.34 µM
- O=C(NC1CCCCC1)[C@@H]1CN(C(=O)CCl)CCN1S(=O)(=O)c1ccsc1 (stereo in doubt) — 3.7-fold lower, 1.14 µM
- O=C(CN1CC(C(=O)Nc2cncc3cc(F)ccc23)c2cc(Cl)ccc2C1=O)NC1CCC1 (stereo unspecified) — 12-fold lower, 0.34 µM
- CNC(=O)CN1Cc2ccc(Cl)cc2C2(CCN(c3cncc4cccc(Cl)c34)C2=O)C1 (stereo unspecified) — within 1.5-fold, 3.28 µM
- O=C(Cc1cc(Cl)cc(Nc2cccc(-c3ccccc3)c2)c1)Nc1cncc2ccccc12 — within 1.5-fold, 5.85 µM
- CC(C)(CNC(=O)C1CNC(=O)N1)N1CCc2ccccc2C1 (stereo unspecified) — higher, > 99.5 µM
- O=C(Cc1cc(Cl)cc(Nc2ccc(Oc3ccc(Cl)cc3)cc2)c1)Nc1cncc2ccccc12 — 1.7-fold lower, 2.44 µM
- O=C(NCCc1ccccc1)[C@@H]1CN(C(=O)CCl)CCN1S(=O)(=O)c1ccsc1 (stereo in doubt) — 3.3-fold lower, 1.28 µM
- O=C(NCCc1cccc(F)c1)C(c1cccnc1)N(C(=O)c1cnc[nH]1)C1CCN(c2ccccc2F)C1 (stereo unspecified) — higher, > 99 µM
- COc1ccc2ncc(NC(=O)Cc3cccc(Cl)c3)n2c1 — 3.8-fold higher, 15.9 µM
- O=C(NCCc1cccc(F)c1)C(c1cccnc1)N(C(=O)c1ccco1)c1ccc(C2CCCC2)cc1 (stereo unspecified) — 15-fold lower, 0.282 µM
- NC1CCc2c(NC(=O)C3CCOc4ccc(Cl)cc43)cncc21 (stereo unspecified) — 6.1-fold higher, 25.8 µM
- CC(C)C[C@@H](NC(=O)[C@@H](Cc1ccccc1)NC(=O)[C@H](N)Cc1ccccc1)C(=O)N[C@H](CCCCN)C(=O)N1CCC(N)(C(=O)O)CC1 (stereo in doubt) — higher, > 99 µM
- COCCNC(=O)[C@@H](c1ccccc1)N1Cc2ccccc2C1=O (stereo in doubt) — higher, > 99.5 µM
- O=C(NCCCO)c1ccc(N(C(=O)c2cocn2)C(C(=O)NCCc2cccc(F)c2)c2cccnc2)cc1 (stereo unspecified) — higher, > 99.5 µM
- O=C(Cc1cc(Cl)cc(Nc2cccc(C(F)(F)F)n2)c1)Nc1cncc2ccccc12 — 2-fold lower, 2.13 µM
- O=C(CN(C(=O)Cn1nnc2ccccc21)c1ccc(-c2ccccc2)cc1)N1CCNCC1 — higher, > 99.5 µM
- C=CC(=O)Nc1cc(C(=O)NC[C@H](Cc2ccccc2)c2ccccn2)ccc1O (stereo in doubt) — higher, > 99.5 µM
- O=C1N(c2cncc3ccccc23)CCC12CN(S(=O)(=O)CC1(C(F)(F)F)CC1)Cc1ccc(Cl)cc12 (stereo unspecified) — 27-fold lower, 0.157 µM
- O=C(Cc1cccc(Cl)c1)Nc1n[nH]c2ccc(F)cc12 — higher, > 99.5 µM
- CSCCCNC(=O)C(c1cccnc1)N(C(=O)c1cocn1)c1ccc(C(C)(C)C)cc1 (stereo unspecified) — within 1.5-fold, 3.85 µM
- CCC(C(=O)O)N1CCCC(NC(=O)c2ccc3ccccc3c2)C1 (stereo unspecified) — higher, > 99.5 µM
- O=C1NCC(C(=O)Nc2cnc3ccccn23)c2cc(Cl)ccc21 (stereo unspecified) — within 1.5-fold, 5.93 µM
- C=CC(=O)N(c1ccc(C(C)(C)C)cc1)C(C(=O)NCCSC)c1cccnc1 (stereo unspecified) — 4.8-fold higher, 20.2 µM
- C=CC(=O)NCc1ccccc1S(=O)(=O)NC — higher, > 99.5 µM
- CCC1(C(=O)Nc2cncc3ccc(S(C)(=O)=O)cc23)CNC(=O)c2ccc(Cl)cc21 (stereo unspecified) — 2.9-fold lower, 1.45 µM
- O=C(NCCc1cccc(F)c1)C(c1cccnc1)N(C(=O)c1ccco1)c1ccc(-c2n[nH]c3c2COCC3)cc1 (stereo unspecified) — 10-fold higher, 43 µM
- CC(C)(C)c1ccc(N(C(=O)c2c[nH]c(=O)[nH]2)C(C(=O)NCCc2cccc(F)c2)c2cccnc2)cc1 (stereo unspecified) — 3.8-fold higher, 15.9 µM
- COc1ccc2cncc(NC(=O)[C@@]3(OC)CCOc4ccc(Cl)cc43)c2c1 (stereo in doubt) — within 1.5-fold, 4.18 µM
- COc1c(O[C@@H]2O[C@H](CO)[C@@H](O)[C@H](O)[C@H]2O)cc2oc(-c3ccc(O)cc3)cc(=O)c2c1O (stereo in doubt) — higher, > 99.5 µM
- O=C(Nc1cncc2ccccc12)C1COCc2c(Cl)cccc21 (stereo unspecified) — 1.7-fold higher, 7.02 µM
- Cc1cccc2ncnc(NC(C)c3ccc4[nH]c(=O)[nH]c4c3)c12 (stereo unspecified) — higher, > 99.5 µM
- N#CCCN1CCN(C(=O)CC2(C(=O)Nc3cncc4ccccc34)CCOc3ccc(Cl)cc32)CC1 (stereo unspecified) — 5-fold higher, 21.3 µM
- O=C(c1cc(F)cc(F)c1)N1CCOc2cc(O)ccc2C1 — higher, > 99.5 µM
- CCOc1ccc(N(C(=O)c2cocn2)C(C(=O)NCCc2cccc(F)c2)c2cccnc2)cc1 (stereo unspecified) — 3.7-fold higher, 15.5 µM

In the case of `O=C1CC(C(=O)Nc2cncc3ccccc23)c2cc(Cl)c(Cl)cc2N1` (stereo unspecified), the IC50 is reported as 0.196 µM and 0.356 µM.
With `CC1(CS(=O)(=O)N2Cc3ccc(Cl)cc3[C@H](C(=O)Nc3cncc4ccccc34)C2)CC1` (stereo in doubt) the IC50 was < 0.05 µM and 0.0846 µM and 0.0459 µM.
`CCNC(=O)CN1CC(C(=O)Nc2cncc3ccccc23)c2cc(Cl)ccc2C1=O` (stereo unspecified) was tested, and the IC50 was 0.0628 µM and 0.105 µM and 0.143 µM.
In the case of `CC(C)(C)c1ccc(-c2nnc(Sc3cnc([N+](=O)[O-])s3)o2)cc1`, the IC50 is reported as 7.29 µM and 2.38 µM.
